The data set is described as follows: physchem. Conditions: aqueous buffer, kinetic from dmso stock.

The solubility (kinetic) is the concentration staying in solution when a stock, usually in DMSO, is diluted into the medium.

Structures are written as SMILES. ≈ marks a conversion by molar mass, not a printed value.

Procedure: General procedure for kinetic solubility measurements. A polypropylene tube was charged with PBS solution (490 μL). To the buffer was added a 10 mM stock solution of compound (10 μL). The tube was vortexed and equilibrated on an end-over-end rotator for 15 min at rt. Aliquots (400 μL) were filtered through 0.45 μm syringe filters and diluted to 5.0 mL with absolute MeOH. Concentrations were determined by UV/VIS analysis.
The test compounds were prepared at concentrations of 10 mM and added to the buffer at room temperature such that cosolvent concentration was fixed at 2%.

The compound `COC(=O)Nc1nc2ccccc2[nH]1` [compound 10, carbendazim] returned a kinetic solubility at 15 min of 140 ± 13 µM (≈ 26.8 µg/mL).
With `COC1=CC(=O)C[C@@H](C)[C@]12Oc1c(Cl)c(OC)cc(OC)c1C2=O` [compound 11, griseofulvin] the figure was 180 ± 13 µM (≈ 63.5 µg/mL).
